Article PMC11879040, “Advancing systemic toxicity risk assessment: Evaluation of a NAM-based toolbox approach” (Toxicological Sciences, 2024)
Where two headings read alike, the source gives them in different places.

Legend:
Tubulin (r) = experiment: IPP Tubulin binding; set-up: species or system rat; conditions: 100 uM; ligand/control Colchicine
[1] = PBK level L2; taken or scaled from references (median where several); ref [6],[7],[10],[19]; cited from earlier work
[2] = tested on: Thyroid hormone receptor alpha, THRA (h); experiment: IPP THRA coactivator recruitment (agonist); assay type: biochemical, human; conditions: agonist, T3
[3] = tested on: Glutamate receptor ionotropic NMDA 1 non-selective, GRIN1 (r); conditions: control CGS 19755
[4] = PBK level L2; single value or median; ref [2],[4],[6],[7],[8],[10],[11],[15],[18],[27],[34]; cited from earlier work
[5] = Assignment of risk classifications to benchmark chemical-exposure scenarios; conditions: for risk: Exp1, from table S1
[6] = tested on: Gamma-aminobutyric acid receptor subunit alpha-1 BZD site, GABRA1A (r); assay type: binding, rat; conditions: control diazepam
[7] = biological target: T1, Adenosine receptor A2a, ADORA2A (h) (Homo sapiens, UniProt P29274); experiment: IPP ADORA2A binding (agonist radioligand); conditions: control NECA
T1 construct: purchased Eurofins Cerep (SafetyScreen44-based IPP panel)

[8] = tested on: Sodium channel protein type 5 subunit alpha (site 2), SCN5A (r); assay type: binding, rat
[9] = tested on: 63 targets with known safety liabilities; experiment: In vitro pharmacological profiling (IPP) panel, screening at 10 or 100 µM and dose response, minimum IC50/AC50; assay type: biochemical; conditions: lowest AC50 across IPP panel (systemic targets); cell_type -; read-out: ipp_lowest_ac50_systemic PoD
human = conditions: cited from earlier work
[10] = tested on: Potassium Voltage-Gated Channel Kv non-selective, KCNQ1 (r); experiment: IPP KCNQ1 binding (antagonist radioligand); set-up: species or system rat; conditions: control α-dendrotoxin
[11] = biological target: Voltage-dependent L-type Ca2+ channel (dihydropyridine site), CACNA1C (r) (Rattus norvegicus, UniProt P22002); assay type: binding
MCF7 cells = experiment: High-throughput transcriptomics (HTTr, TempO-Seq), MCF7, 24 h; assay type: cell-based, human; conditions: MCF-7; for pod_httr_bifrost PoD: HTTr BIFROST PoD; for podl_path_minbmd PoD: HTTr minimum pathway BMD(L)
Experimental: (§1) HepG2, HepaRG, and MCF7 cells were treated with each compound for 24 h across a dose range of 7 concentrations and lysed using TempO-Seq lysis buffer (BioSpyder Technologies, proprietary kit, see [Middleton et al. 2022] for method details). Sequencing was performed using TempO-Seq (BioClavis) version 2 of the human whole transcriptome panel and analyzed as described previously in Middleton et al.

HepG2 cells [12] = experiment: High-throughput transcriptomics (HTTr, TempO-Seq), HepG2, 24 h; assay type: cell-based, human; conditions: HepG2; for pod_httr_bifrost PoD: HTTr BIFROST PoD; for podl_path_minbmd PoD: HTTr minimum pathway BMD(L)
Experimental: as §1

HepG2 cells [13] = experiment: Cell stress panel (CSP), 24 h, 8 concentrations, BIFROST global PoD; assay type: cell-based; conditions: HepG2; cell stress panel PoD
Experimental: Compounds were tested using the previously developed cell stress panel ([Hatherell et al. 2020]) and the expanded biomarker panel outlined in Middleton et al. HepG2 cells were treated with all compounds for 24 h across 8 concentrations prior to biomarker analysis. The same plate layout and number of replicates (3 biological and 2 technical) were used as previously for each assay within the panel.

HepaRG cells = experiment: High-throughput transcriptomics (HTTr, TempO-Seq), HepaRG, 24 h; assay type: cell-based, human; conditions: HepaRG; for pod_httr_bifrost PoD: HTTr BIFROST PoD; for podl_path_minbmd PoD: HTTr minimum pathway BMD(L)
Experimental: as §1

[14] = cited from earlier work
[15] = biological target: T2, Estrogen receptor, ER1 (h) (Homo sapiens, UniProt P03372); experiment: IPP ER1 coactivator recruitment (agonist); assay type: biochemical; conditions: estriol
T2 construct: purchased Eurofins Cerep (SafetyScreen44-based IPP panel)
T2 sequence (P03372 1-595): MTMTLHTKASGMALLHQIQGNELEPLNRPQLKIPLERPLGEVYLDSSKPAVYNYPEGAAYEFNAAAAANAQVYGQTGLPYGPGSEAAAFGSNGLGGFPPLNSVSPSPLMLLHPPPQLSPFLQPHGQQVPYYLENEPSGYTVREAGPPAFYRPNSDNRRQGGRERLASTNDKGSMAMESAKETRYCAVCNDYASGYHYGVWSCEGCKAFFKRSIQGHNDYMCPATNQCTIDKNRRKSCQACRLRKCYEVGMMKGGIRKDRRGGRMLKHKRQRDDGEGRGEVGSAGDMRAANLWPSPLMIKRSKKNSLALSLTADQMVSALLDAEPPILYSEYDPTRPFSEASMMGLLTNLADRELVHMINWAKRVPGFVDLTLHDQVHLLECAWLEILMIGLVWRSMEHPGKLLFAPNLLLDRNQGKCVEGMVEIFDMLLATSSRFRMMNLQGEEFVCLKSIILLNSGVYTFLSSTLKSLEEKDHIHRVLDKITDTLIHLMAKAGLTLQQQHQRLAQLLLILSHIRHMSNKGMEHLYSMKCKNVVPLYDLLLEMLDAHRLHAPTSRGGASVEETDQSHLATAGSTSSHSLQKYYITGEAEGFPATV

[16] = biological target: T2, Estrogen receptor, ER1 (h); experiment: IPP ER1 coactivator recruitment (antagonist); assay type: biochemical; conditions: estriol
[17] = biological target: Potassium voltage-gated channel subfamily H member 2 hERG, KCNH2 (h) (Homo sapiens, UniProt Q12809); conditions: [3H] Dofetilide, control Terfenadine
[18] = human
rat = conditions: rat; 7 days; ref ToxRefDB/Paul-Friedman et al. (2020)/regulatory opinions; cited from earlier work
[19] = 100 uM, * denotes assay interference (2-Amino-6-chloro-4-nitrophenol, HC Red 3)

T1 sequence (P29274 whole entry): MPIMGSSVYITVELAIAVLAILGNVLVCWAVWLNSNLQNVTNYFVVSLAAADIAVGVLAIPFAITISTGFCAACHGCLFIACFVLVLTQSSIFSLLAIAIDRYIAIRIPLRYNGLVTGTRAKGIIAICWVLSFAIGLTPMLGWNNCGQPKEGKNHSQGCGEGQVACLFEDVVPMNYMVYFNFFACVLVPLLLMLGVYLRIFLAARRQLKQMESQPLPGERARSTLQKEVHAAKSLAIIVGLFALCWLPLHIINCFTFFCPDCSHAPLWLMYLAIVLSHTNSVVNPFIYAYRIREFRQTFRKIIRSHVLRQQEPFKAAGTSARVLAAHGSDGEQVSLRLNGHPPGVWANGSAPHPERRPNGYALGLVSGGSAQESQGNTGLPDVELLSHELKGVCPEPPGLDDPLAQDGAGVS
Chain of Potassium voltage-gated channel subfamily H member 2 hERG, KCNH2 (h) (Q12809 whole entry): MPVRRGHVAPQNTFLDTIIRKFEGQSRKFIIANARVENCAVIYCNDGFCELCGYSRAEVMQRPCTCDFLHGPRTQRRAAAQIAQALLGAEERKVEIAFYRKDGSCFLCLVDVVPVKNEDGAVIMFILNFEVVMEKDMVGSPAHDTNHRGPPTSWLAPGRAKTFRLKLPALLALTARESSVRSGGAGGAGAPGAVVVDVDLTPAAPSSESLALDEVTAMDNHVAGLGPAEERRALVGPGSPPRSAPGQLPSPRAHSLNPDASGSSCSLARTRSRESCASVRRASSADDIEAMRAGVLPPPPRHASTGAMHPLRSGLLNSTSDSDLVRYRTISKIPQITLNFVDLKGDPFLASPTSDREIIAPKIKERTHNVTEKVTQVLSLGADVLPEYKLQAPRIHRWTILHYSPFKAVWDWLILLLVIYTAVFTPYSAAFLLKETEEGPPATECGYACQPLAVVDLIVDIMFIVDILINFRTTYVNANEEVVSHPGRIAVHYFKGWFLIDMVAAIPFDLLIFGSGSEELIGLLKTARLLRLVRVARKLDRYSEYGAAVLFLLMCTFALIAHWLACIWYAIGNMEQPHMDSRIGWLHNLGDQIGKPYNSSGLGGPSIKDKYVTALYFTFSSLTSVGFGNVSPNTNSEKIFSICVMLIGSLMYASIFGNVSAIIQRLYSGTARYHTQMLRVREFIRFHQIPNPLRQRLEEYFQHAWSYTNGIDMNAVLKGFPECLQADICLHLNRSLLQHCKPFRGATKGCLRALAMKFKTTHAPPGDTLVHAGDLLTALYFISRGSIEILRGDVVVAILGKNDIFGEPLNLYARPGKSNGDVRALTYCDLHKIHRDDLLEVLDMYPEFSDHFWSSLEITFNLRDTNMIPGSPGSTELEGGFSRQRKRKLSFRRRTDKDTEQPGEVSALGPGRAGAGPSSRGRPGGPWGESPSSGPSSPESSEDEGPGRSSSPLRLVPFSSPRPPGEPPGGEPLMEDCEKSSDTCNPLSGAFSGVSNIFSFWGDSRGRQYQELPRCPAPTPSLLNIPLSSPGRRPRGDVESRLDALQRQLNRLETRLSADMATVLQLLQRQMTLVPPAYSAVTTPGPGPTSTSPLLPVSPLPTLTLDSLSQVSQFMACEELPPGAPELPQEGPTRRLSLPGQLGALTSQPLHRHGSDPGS
Chain of Voltage-dependent L-type Ca2+ channel (dihydropyridine site), CACNA1C (r) (P22002 whole entry): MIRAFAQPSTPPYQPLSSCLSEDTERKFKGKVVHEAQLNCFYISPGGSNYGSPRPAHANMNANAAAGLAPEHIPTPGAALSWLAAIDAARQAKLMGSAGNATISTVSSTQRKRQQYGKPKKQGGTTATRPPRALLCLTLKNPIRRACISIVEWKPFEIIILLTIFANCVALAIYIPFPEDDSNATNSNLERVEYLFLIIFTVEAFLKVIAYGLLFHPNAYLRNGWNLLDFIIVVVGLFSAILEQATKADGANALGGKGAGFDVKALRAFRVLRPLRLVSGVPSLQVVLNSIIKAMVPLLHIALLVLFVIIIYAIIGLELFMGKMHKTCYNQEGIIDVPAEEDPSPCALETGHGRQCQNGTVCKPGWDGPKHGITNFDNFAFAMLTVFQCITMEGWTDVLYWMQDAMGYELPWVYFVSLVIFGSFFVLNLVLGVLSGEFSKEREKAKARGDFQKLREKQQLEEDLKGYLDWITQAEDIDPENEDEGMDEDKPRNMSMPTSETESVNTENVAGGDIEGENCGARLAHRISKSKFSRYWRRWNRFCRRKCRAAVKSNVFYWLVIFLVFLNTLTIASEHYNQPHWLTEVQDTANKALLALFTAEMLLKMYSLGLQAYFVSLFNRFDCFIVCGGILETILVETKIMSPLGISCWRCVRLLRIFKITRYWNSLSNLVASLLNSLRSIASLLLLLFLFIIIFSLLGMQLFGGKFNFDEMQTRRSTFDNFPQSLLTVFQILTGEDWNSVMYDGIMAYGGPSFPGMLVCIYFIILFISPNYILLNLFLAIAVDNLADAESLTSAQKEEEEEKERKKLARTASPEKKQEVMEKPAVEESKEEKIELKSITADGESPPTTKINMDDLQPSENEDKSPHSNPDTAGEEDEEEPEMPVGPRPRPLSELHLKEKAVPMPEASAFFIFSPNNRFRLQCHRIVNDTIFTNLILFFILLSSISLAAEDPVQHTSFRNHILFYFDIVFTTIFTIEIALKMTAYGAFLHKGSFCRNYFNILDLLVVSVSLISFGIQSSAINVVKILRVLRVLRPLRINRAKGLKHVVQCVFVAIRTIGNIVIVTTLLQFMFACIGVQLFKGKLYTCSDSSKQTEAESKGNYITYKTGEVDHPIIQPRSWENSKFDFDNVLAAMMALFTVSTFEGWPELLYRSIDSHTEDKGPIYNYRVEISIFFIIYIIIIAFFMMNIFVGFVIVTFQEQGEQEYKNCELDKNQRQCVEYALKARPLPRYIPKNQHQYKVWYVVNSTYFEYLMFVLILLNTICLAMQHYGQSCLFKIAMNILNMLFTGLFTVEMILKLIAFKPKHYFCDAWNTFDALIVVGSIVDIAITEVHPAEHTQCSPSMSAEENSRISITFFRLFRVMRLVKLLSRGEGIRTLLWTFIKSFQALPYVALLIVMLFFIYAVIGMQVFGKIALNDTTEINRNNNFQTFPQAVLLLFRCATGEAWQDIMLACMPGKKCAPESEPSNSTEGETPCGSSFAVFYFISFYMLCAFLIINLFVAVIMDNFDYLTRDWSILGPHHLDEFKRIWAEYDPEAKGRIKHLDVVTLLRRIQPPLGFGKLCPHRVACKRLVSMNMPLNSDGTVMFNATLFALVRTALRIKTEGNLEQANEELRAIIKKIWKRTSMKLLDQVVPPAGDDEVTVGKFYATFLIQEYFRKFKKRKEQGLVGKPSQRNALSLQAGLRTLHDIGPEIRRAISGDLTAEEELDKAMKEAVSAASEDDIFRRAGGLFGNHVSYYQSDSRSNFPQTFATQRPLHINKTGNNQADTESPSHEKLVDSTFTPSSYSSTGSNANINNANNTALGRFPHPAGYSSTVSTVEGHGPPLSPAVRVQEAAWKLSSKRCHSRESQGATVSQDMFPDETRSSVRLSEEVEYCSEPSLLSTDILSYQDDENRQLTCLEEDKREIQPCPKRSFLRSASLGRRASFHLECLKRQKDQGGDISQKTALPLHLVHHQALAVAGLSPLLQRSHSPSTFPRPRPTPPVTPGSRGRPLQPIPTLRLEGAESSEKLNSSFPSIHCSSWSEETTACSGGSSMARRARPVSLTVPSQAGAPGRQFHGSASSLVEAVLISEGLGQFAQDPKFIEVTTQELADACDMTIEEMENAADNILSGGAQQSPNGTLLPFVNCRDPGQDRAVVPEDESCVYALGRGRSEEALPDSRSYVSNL

SMILES | IPP screening %, Specific binding (Tubulin (r)) | IPP screening %, Coactivator recruitment [2, 19] | Specific binding ([3]; IPP screening at 100 uM) | Specific binding ([6]; IPP screening at 100 uM) | Specific binding ([7]; IPP screening at 100 uM) | AC50 [9] | Specific binding ([10]; IPP screening at 100 uM) | pod_httr_bifrost PoD (MCF7 cells) | podl_path_minbmd PoD (MCF7 cells) | pod_httr_bifrost PoD (HepG2 cells [12]) | podl_path_minbmd PoD (HepG2 cells [12]) | pod_cell_stress PoD (HepG2 cells [13]) | pod_httr_bifrost PoD (HepaRG cells) | podl_path_minbmd PoD (HepaRG cells) | also measured
CCOC(=O)c1ccc(N)cc1 [Benzocaine, Ethyl 4-aminobenzoate] | 15.0% | 2.0% | 11.5% | -9.1% | 36.2% | 6 µM | 3.6% | 0.8705 µM | 19.4739 µM | 9.489 µM | 242.367 µM | 47.784 µM | 103.552 µM | 413.121 µM | Intrinsic Liver Clearance [1]: 7799.2 L/h; Fup [4]: 36.7%; Risk Classification ([5]; Dermal 20% in Gel): High risk; risk ([5]; Oral, 22mg/kg is the safety dose, Solution): 1; Specific binding [8]: -0.8%; adverse event reports related to methaemaglobinemia (human; of the 218 adverse event reports identified by Moore et al, ref [9]): Of the 218 adverse event reports identified by Moore et al, 136 were related to methaemaglobinemia with 2 cases resulting in deaths and 107 resulting in serious events.; Specific binding [11]: 10.5%
CCN(CC)C(=O)c1cccc(C)c1 [DEET, N,N-Diethyl-3-methylbenzamide] | -14.0% | 0.0% | 4.4% | 8.9% | 20.5% | 53.7 µM | -4.9% | 67.2542 µM | 670.53 µM | 16.9912 µM | 582.029 µM | 29.817 µM | 24.7921 µM | 567.13 µM | NOAEL ([14]; 2-gen study, alpha-2-u nephropathy not relevant for humans, ref https://doi.org/10.1016/B978-0-12-374367-1.00098-7): Lowest human-relevant NOAEL was from a subchronic study. NOAEL of 25 mkd from 2-gen study appears to be based on alpha-2-u nephropathy which is not relevant for humans (https://doi.org/10.1016/B978-0-12-374367-1.001-7); PoD (NOAEL) ([14]; species '-', 364 days, ref ToxRefDB/Paul-Friedman et al. (2020)/regulatory opinions): 100 mg/kg bw/day; IPP screening %, Coactivator recruitment [15, 19]: 2.0%; risk ([5]; Dermal, 15%, Sun lotion): 0; IPP screening %, Coactivator recruitment [16, 19]: 0.0%; Specific binding ([8]; IPP screening at 100 uM, control veratridine): 11.7%; IPP screening %, Specific binding ([17]; 100 uM): -12.0%
O=CCCCC=O [Glutaraldehyde, Pentanedial] | – | – | – | – | – | – | – | – | – | – | – | – | – | – | IPP screening %, Coactivator recruitment ([2]; 10 uM): 3.0%; IPP screening %, Coactivator recruitment ([15]; 10 uM): 2.0%; Specific binding ([3]; IPP screening at 10 uM): -4.1%; Specific binding ([6]; IPP screening at 10 uM): -5.0%; IPP screening %, Coactivator recruitment ([16]; 10 uM): -9.0%; Specific binding ([7]; IPP screening at 10 uM): -3.4%; Specific binding ([8]; IPP screening at 10 uM, control veratridine): 13.2%; NOAEL (human; 1 year human study, ref not given): The lowest NOAEL from a rat repeat-dose study. Not there is also a 1 year human study with a NOAEL of 3 mkd.; IPP screening %, Specific binding ([17]; 10 uM): -1.1%; Specific binding ([10]; IPP screening at 10 uM): 5.2%; risk [18]: 0; PoD (NOAEL) (rat): 1 mg/kg bw/day
